Here are results for two molecules from patent publication EP0408782A1, “Antihypoxic agent” (NAUCHNOISSLEDOVATELSKI CHIMIKOPHARMATZEVTICHEN INSTITUT, priority 1989, dated 1991).

In data set [1] the test system is mice. The experiment in a line: hypobaric hypoxia in mice (survival time in decompression chamber, 210 mmHg). The data set is classed as in vivo, white mice line H. The note with it: 1 hour before the hypoxia. The method, then: EXAMPLE 1: Pharmacological study: Cerebro-protective anti-hypoxic effect using the method "hypobaric hypoxia" in mice. The experiments are carried out on white mice line H (18-22 g) in groups of 8 animals. […] The survival time (in seconds) from the beginning of the hypoxia till the death of the animals was measured. The results were calculated as a percentage towards the control group. […]

Data set [2] concerns mice. Nature of the data set: complete ischaemia by decapitation in mice (duration of respiratory movements of the isolated head). To be noted: 1 hour before. The data set is classed as in vivo, white mice line H. The method, then:
Example 2. Pharmacological study of the cerebro-protective anti-ischaemic effect using the method of"complete ischaemia by decapitation" in mice. The experiments are carried out on white mice line H (18-22g) in groups of 8 animals. Complete […] caused by means of a decapitation of the animals using the method of Hollowach-Thurston et al.(9). The duration of the respiratory movements of the isolated head (in seconds) was measured. The results are calculated as a percentage towards the control group. […]

A further data set is described as follows: in vivo. To be noted: mouse.
Data set [3] relates to mice. To be noted: mouse, in vivo.

Read-outs that look alike come from different tables or passages of the source.

Regarding `NC(=O)CN1CCCC1=O` [Piracetam, 2-oxo-1-pyrrolidineacetamide], in the data set on mice [1] (1600 mg/kg intraperitoneally), the “Increase of the resistancy towards hypoxia (% towards the control group)” value is given as 22,8%. Also, the “Increase of the resistance towards ischaemia (% towards the control group)” value with mice [2] (1600 mg/kg intraperitoneally) is 27,9%. Moreover, the LD50 in the data set “in vivo” (ip) and in “in vivo” (po) was 8000 mg/kg in each case.
For `Fc1ccc(C(c2ccc(F)cc2)N2CCN(C/C=C/c3ccccc3)CC2)cc1` [Flunarizine], the “Increase of the resistancy towards hypoxia (% towards the control group)” value in the data set on mice [1] (10 mg/kg intraperitoneally) is listed as 11,7%. Also, the “Increase of the resistance towards ischaemia (% towards the control group)” value in the data set with mice [2] (10 mg/kg intraperitoneally) is on record as 42,8%. Further, the LD₅₀ with mice [3] (ip) was 204/158+264/ mg/kg; in the data set on mice [3] (po) it was 232/182+295/ mg/kg. For the same molecule, the values for the median lethal dose (LD50) in the data set “in vivo” (ip) and in the data set “in vivo” (po) were 204 mg/kg and 232 mg/kg, respectively.
